Source: patent US20150148234A1, “HERBICIDE-RESISTANT SUNFLOWER PLANTS WITH MULTIPLE HERBICIDE RESISTANT ALLELES OF AHASL1 AND METHODS OF USE” (NIDERA S.A., priority 2013, published 2015)
Marks after values point to notes of the source that are not given here.

Experiments:
Experiment in all cases: imazapyr whole plant greenhouse test (Example 2)
Format in all cases: in vivo
[1] = tested on: sunflower line L5 (BTK 47), susceptible, WT; details: susceptible line; from 1x to 6x; of the untreated control plants
Protocol: (§1) Seeds were sown in Petri dishes and, after germination, plantlets were transplanted to pots of 10 cm of diameter in a potting media consisting of equal parts of vermiculite, soil and sand. Plants were grown in a greenhouse under natural light conditions supplemented with 400 W sodium halide lamps to provide a 16 hr daylength. Day/night temperatures were 25 and 20 ° C., respectively. At the V2-V4 stage (Schneiter & Miller (1981) Crop Sci. 21:901-903) 10 plants of each genotype were randomly assigned to each treatment consisting of eight imazapyr doses (0, 40, 80, 160, 240, 320, 400 and 480 g ai/ha, corresponding to untreated, 0.5×, 1×, 2×, 3×, 4×, 5× and 6×, respectively), and a zero-time biomass determination. Experiment was arranged as a randomized block design with a full factorial (sunflower line×treatment) arrangement of treatments and 10 replications.
(§2) On the day of herbicide application ten plants of each genotype were cut at the cotyledonal node and dried at 60° C. for 48 hrs for zero-time dried weight determination.
(§3) The remaining plants were maintained for 14 days after imazapyr treatment (DAT) and their height, Phytotoxicity Index (PI) and above ground dry biomass were determined Height was determined as the distance between the cotyledonal node and the apex of each plant. Above ground biomass data from each line were converted to biomass accumulation after application by subtracting the appropriate average zero- time biomass from each sample. Dry biomass data were converted to percentages of the untreated control plants within each line to allow direct comparisons between groups.

[2] = tested on: sunflower line L3 (cmsGM40), A122T
Protocol: as §1, §2, §3

[3] = tested on: sunflower genotypes carrying A205V (mean of H1, L1, L2); details: for Phytotoxicity Index (0-9) 14 days after treatment / biomass accumulation 14 days after treatment, % of untreated / plant height 14 days after treatment, % of untreated: A205V Mean
Protocol: as §1, §2, §3

sunflower line L4, A122T = tested on: sunflower line L4, A122T
Protocol: as §1, §2, §3

SMILES: CC(C)C1(C)N=C(c2ncccc2C(=O)O)NC1=O (centres unmarked) [imazapyr]
- height reduction [1]: approximately 85%
- Phytotoxicity Index (0-9) 14 days after treatment ([2]; dose 0.5 (0.5x, 40 g ai/ha)): 0.4
- biomass accumulation 14 days after treatment, % of untreated ([2]; dose 0.5 (0.5x, 40 g ai/ha)): 96.6%
- plant height 14 days after treatment, % of untreated ([2]; dose 0.5 (0.5x, 40 g ai/ha)): 100.4%
- Phytotoxicity Index (0-9) 14 days after treatment ([2]; dose 1 (1x, 80 g ai/ha)): 0.4
- biomass accumulation 14 days after treatment, % of untreated ([2]; dose 1 (1x, 80 g ai/ha)): 93.9%
- plant height 14 days after treatment, % of untreated ([2]; dose 1 (1x, 80 g ai/ha)): 99.9%
- Phytotoxicity Index (0-9) 14 days after treatment ([2]; dose 2 (2x, 160 g ai/ha)): 0.4
- biomass accumulation 14 days after treatment, % of untreated ([2]; dose 2 (2x, 160 g ai/ha)): 81.6%
- plant height 14 days after treatment, % of untreated ([2]; dose 2 (2x, 160 g ai/ha)): 92.0%
- Phytotoxicity Index (0-9) 14 days after treatment ([2]; dose 3 (3x, 240 g ai/ha)): 0.5
- biomass accumulation 14 days after treatment, % of untreated ([2]; dose 3 (3x, 240 g ai/ha)): 75.8%
- plant height 14 days after treatment, % of untreated ([2]; dose 3 (3x, 240 g ai/ha)): 90.5%
- Phytotoxicity Index (0-9) 14 days after treatment ([2]; dose 4 (4x, 320 g ai/ha)): 1.0
- biomass accumulation 14 days after treatment, % of untreated ([2]; dose 4 (4x, 320 g ai/ha)): 75.0%
- plant height 14 days after treatment, % of untreated ([2]; dose 4 (4x, 320 g ai/ha)): 90.8%
- Phytotoxicity Index (0-9) 14 days after treatment ([2]; dose 5 (5x, 400 g ai/ha)): 2.0
- biomass accumulation 14 days after treatment, % of untreated ([2]; dose 5 (5x, 400 g ai/ha)): 60.1%
- plant height 14 days after treatment, % of untreated ([2]; dose 5 (5x, 400 g ai/ha)): 84.4%
- Phytotoxicity Index (0-9) 14 days after treatment ([2]; dose 6 (6x, 480 g ai/ha)): 2.5
- biomass accumulation 14 days after treatment, % of untreated ([2]; dose 6 (6x, 480 g ai/ha)): 59.6%
- plant height 14 days after treatment, % of untreated ([2]; dose 6 (6x, 480 g ai/ha)): 84.4%
- Phytotoxicity Index (0-9) 14 days after treatment ([3]; dose 0.5 (0.5x, 40 g ai/ha)): 0
- biomass accumulation 14 days after treatment, % of untreated ([3]; dose 0.5 (0.5x, 40 g ai/ha)): 95.3* %
- plant height 14 days after treatment, % of untreated ([3]; dose 0.5 (0.5x, 40 g ai/ha)): 99.6%
- Phytotoxicity Index (0-9) 14 days after treatment ([3]; dose 1 (1x, 80 g ai/ha)): 0
- biomass accumulation 14 days after treatment, % of untreated ([3]; dose 1 (1x, 80 g ai/ha)): 85.5** %
- plant height 14 days after treatment, % of untreated ([3]; dose 1 (1x, 80 g ai/ha)): 99.2%
- Phytotoxicity Index (0-9) 14 days after treatment ([3]; dose 2 (2x, 160 g ai/ha)): 2.2*
- biomass accumulation 14 days after treatment, % of untreated ([3]; dose 2 (2x, 160 g ai/ha)): 62.8** %
- plant height 14 days after treatment, % of untreated ([3]; dose 2 (2x, 160 g ai/ha)): 73.7** %
- Phytotoxicity Index (0-9) 14 days after treatment ([3]; dose 3 (3x, 240 g ai/ha)): 5.1**
- biomass accumulation 14 days after treatment, % of untreated ([3]; dose 3 (3x, 240 g ai/ha)): 48.1** %
- plant height 14 days after treatment, % of untreated ([3]; dose 3 (3x, 240 g ai/ha)): 50.1** %
- Phytotoxicity Index (0-9) 14 days after treatment ([3]; dose 4 (4x, 320 g ai/ha)): 7.4**
- biomass accumulation 14 days after treatment, % of untreated ([3]; dose 4 (4x, 320 g ai/ha)): 33.5** %
- plant height 14 days after treatment, % of untreated ([3]; dose 4 (4x, 320 g ai/ha)): 31.5** %
- Phytotoxicity Index (0-9) 14 days after treatment ([3]; dose 5 (5x, 400 g ai/ha)): 8.2**
- biomass accumulation 14 days after treatment, % of untreated ([3]; dose 5 (5x, 400 g ai/ha)): 28.7** %
- plant height 14 days after treatment, % of untreated ([3]; dose 5 (5x, 400 g ai/ha)): 27.7** %
- Phytotoxicity Index (0-9) 14 days after treatment ([3]; dose 6 (6x, 480 g ai/ha)): 8.2**
- biomass accumulation 14 days after treatment, % of untreated ([3]; dose 6 (6x, 480 g ai/ha)): 26.1** %
- plant height 14 days after treatment, % of untreated ([3]; dose 6 (6x, 480 g ai/ha)): 30.4** %
- height reduction, value reached ([3]; A205V homozygous, from 2x to 6x, of the untreated controls): 69.6%
- Phytotoxicity Index (0-9) 14 days after treatment (sunflower line L4, A122T; dose 0.5 (0.5x, 40 g ai/ha)): 0.0
- biomass accumulation 14 days after treatment, % of untreated (sunflower line L4, A122T; dose 0.5 (0.5x, 40 g ai/ha)): 100.0%
- plant height 14 days after treatment, % of untreated (sunflower line L4, A122T; dose 0.5 (0.5x, 40 g ai/ha)): 100.0%
- Phytotoxicity Index (0-9) 14 days after treatment (sunflower line L4, A122T; dose 1 (1x, 80 g ai/ha)): 0.0
- biomass accumulation 14 days after treatment, % of untreated (sunflower line L4, A122T; dose 1 (1x, 80 g ai/ha)): 99.1%
- plant height 14 days after treatment, % of untreated (sunflower line L4, A122T; dose 1 (1x, 80 g ai/ha)): 100.0%
- Phytotoxicity Index (0-9) 14 days after treatment (sunflower line L4, A122T; dose 2 (2x, 160 g ai/ha)): 0.0
- biomass accumulation 14 days after treatment, % of untreated (sunflower line L4, A122T; dose 2 (2x, 160 g ai/ha)): 97.0%
- plant height 14 days after treatment, % of untreated (sunflower line L4, A122T; dose 2 (2x, 160 g ai/ha)): 101.8%
- Phytotoxicity Index (0-9) 14 days after treatment (sunflower line L4, A122T; dose 3 (3x, 240 g ai/ha)): 0.0
- biomass accumulation 14 days after treatment, % of untreated (sunflower line L4, A122T; dose 3 (3x, 240 g ai/ha)): 96.1%
- plant height 14 days after treatment, % of untreated (sunflower line L4, A122T; dose 3 (3x, 240 g ai/ha)): 97.0%
- Phytotoxicity Index (0-9) 14 days after treatment (sunflower line L4, A122T; dose 4 (4x, 320 g ai/ha)): 0.0
- biomass accumulation 14 days after treatment, % of untreated (sunflower line L4, A122T; dose 4 (4x, 320 g ai/ha)): 84.3%
- plant height 14 days after treatment, % of untreated (sunflower line L4, A122T; dose 4 (4x, 320 g ai/ha)): 92.1%
- Phytotoxicity Index (0-9) 14 days after treatment (sunflower line L4, A122T; dose 5 (5x, 400 g ai/ha)): 0.0
- biomass accumulation 14 days after treatment, % of untreated (sunflower line L4, A122T; dose 5 (5x, 400 g ai/ha)): 77.5%
- plant height 14 days after treatment, % of untreated (sunflower line L4, A122T; dose 5 (5x, 400 g ai/ha)): 84.8%
- Phytotoxicity Index (0-9) 14 days after treatment (sunflower line L4, A122T; dose 6 (6x, 480 g ai/ha)): 0.5
- biomass accumulation 14 days after treatment, % of untreated (sunflower line L4, A122T; dose 6 (6x, 480 g ai/ha)): 70.7%
- plant height 14 days after treatment, % of untreated (sunflower line L4, A122T; dose 6 (6x, 480 g ai/ha)): 79.8%
